Experimental data reported in patent publication US11839679B2, “Gamma-diketones for treatment and prevention of aging skin and wrinkles” (BioSplice Therapeutics, Inc., priority 2014, dated 2023).

Test system: fine lines, wrinkles in the outer canthus of the eyes (crow's feet area)
Assay: Change in Roughness and Wrinkle Depth via Visioscan, Example 2
Assay type: in vivo, human
Details: Topical 0.05% in Oil (Cohort 2), 21 test subjects
From the text: Surface Evaluation of Living Skin Visioscan: The Visioscan (Courage and Khazaka) took a direct image of the living skin using a measuring head containing a CCD-camera and two metal halogen lamps positioned opposite each other in order to ensure even illumination of the measuring field on the skin (Skin Pharmacol Appl Skin Physiol (1999), 12(1-2), 1-11 and Cosmetic & Toiletries magazine (2009), 124(6), 51-54). The grey level distribution of the pixels in the image correspond to different phenomena (white pixels represent desquamation on the skin, dark pixels represent lines and wrinkles). The software with the Visioscan automatically calculates skin smoothness, skin roughness, scaliness and wrinkle parameters. Visioscan images were taken at the following time points: Baseline Day 0 (beginning of the study), Week 2, Week 4, Week 8, and Week 12 (end of the test).
The source data was Visioscan and PhotoGrammetrix Image Analysis readings along with subjective assessments, which were totaled and reported as average scores. Photographs were placed side by side as to compare the photographs of before and after application of the test product in the eye area. Wrinkle reduction analysis source data consisted of crow's feet area quantification in relative units (px), collected at baseline and, the week 2, 4, 8 and 12 evaluations. The data obtained via Visioscan and from PhotoGrammetrix Image Analysis was quoted as % differences from baseline at each of the previously described time points. A paired t-test analysis was conducted in order to compare the results of post test product application measurements to baseline measurements where applicable. Statistical significance was established if p≤(α=0.05) was calculated.
Four groups of women were recruited to evaluate and compare the efficacy of four anti-aging test products (targeting the periorbital eye area) intended to reduce the appearance of fine lines, wrinkles in the outer canthus of the eyes (crow's feet area) over a 12 week period. Wrinkle assessment was conducted instrumentally using a Visioscan image analysis system. Effectiveness of the test product was evaluated using panelist self-assessment via questionnaire responses. Each stage in the progression of treatments was photographically documented using High Resolution Scientifically Matched Photography technique. Image analysis was utilized to quantify changes in fine lines and crow's feet condition observed in the Scientifically Matched Photographs.
Subject Selection: • Number: Eighty three subjects (twenty or twenty one per group) to complete the study. • Sex: Females • Race: Caucasian/Asian/Hispanic • Age Range: 40 through 60 years old
Test samples: • Topical 0.15% of Compound #222 in Oil (a 50/50 mixture of Propylene Glycol Dicaprylate/Dicaprate and Caprylic/Capric Triglyceride) (Cohort 1) • Topical 0.05% of Compound #222 in Oil (a 50/50 mixture of Propylene Glycol Dicaprylate/Dicaprate and Caprylic/Capric Triglyceride) (Cohort 2) • Topical 0.15% of Compound #222 in PEG400 (Cohort 3) • Topical 0.05% of Compound #222 in PEG400 (Cohort 4)
The testing protocol and evaluation was the same as in Example 1.

## O=C(CCC(=O)c1ccc2c(c1)OCO2)c1ccccc1 [#222]
Week 8 vs baseline
  % Change in Roughness, Mean: −32.9%
  % Change in Roughness, Median: −33.9%
  % Change in Wrinkle Depth, Mean: −58.0%
  % Change in Wrinkle Depth, Median: −59.3%
  Change in Roughness, Mean: −0.85
  Change in Roughness, Median: −0.67
  Change in Wrinkle Depth (×10^4), Mean: −0.89 ×10^4
  Change in Wrinkle Depth (×10^4), Median: −0.79 ×10^4
Week 12 vs baseline
  % Change in Roughness, Mean: −39.3%
  % Change in Roughness, Median: −40.9%
  % Change in Wrinkle Depth, Mean: −54.1%
  % Change in Wrinkle Depth, Median: −63.5%
  Change in Roughness, Mean: −1.01
  Change in Roughness, Median: −0.79
  Change in Wrinkle Depth (×10^4), Mean: −0.92 ×10^4
  Change in Wrinkle Depth (×10^4), Median: −0.85 ×10^4
